For data set [1], the target named is Dipeptidyl peptidase 8 (Homo sapiens, UniProt Q6V1X1). The data set is described as follows: Inhibition of DPP-8 (unknown origin).
Data set [2] deals with Dipeptidyl peptidase 9 (Homo sapiens, UniProt Q86TI2).
Description: Inhibition of DPP-9 (unknown origin)
Data set [3] is described as follows: Half life in Sprague-Dawley rat at 25 mg/kg, po. The format is ADME, organism-based. More on the design: dose 25 mg/kg, route oral. The settings on record: in vivo.
Data set [4] in a line: Oral bioavailability in Sprague-Dawley rat at 25 mg/kg. The format is ADME, organism-based. Particulars: in vivo.
Data set [5] addresses Cytochrome P450 3A4 (Homo sapiens, UniProt P08684). In words: Inhibition of CYP3A (unknown origin). The format is ADME.
Data set [6] has as its system Mus musculus. In words: In vivo inhibition of DPP-4 in ICR mouse assessed as cleavage rate of Gly-Pro-AMC in plasma at 3 mg/kg, po measured at 7 hrs by fluorescence assay relative to control. It counts as functional.
Data set [7] in a line: Apparent volume of distribution during terminal phase in Sprague-Dawley rat at 5 mg/kg, iv and 25 mg/kg, po. The format is ADME, organism-based. The settings on record: in vivo, read-out: Vz/F.
The subject of data set [8] is Mus musculus. In words: In vivo inhibition of DPP-4 in ICR mouse assessed as cleavage rate of Gly-Pro-AMC in plasma at 1 mg/kg, po measured at 0.5 hrs by fluorescence assay relative to control. It counts as functional.
Data set [9] has as its system Mus musculus. In words: In vivo inhibition of DPP-4 in ICR mouse assessed as cleavage rate of Gly-Pro-AMC in plasma at 3 mg/kg, po measured at 24 hrs by fluorescence assay relative to control. The format is functional.
Data set [10] concerns Mus musculus. The data set is described as follows: In vivo inhibition of DPP-4 in ICR mouse assessed as cleavage rate of Gly-Pro-AMC in plasma at 3 mg/kg, po measured at 0.5 hrs by fluorescence assay relative to control. It counts as functional.
A short description of data set [11]: Plasma clearance in Sprague-Dawley rat at 5 mg/kg, iv and 25 mg/kg, po. The format is ADME, organism-based.
Data set [12] has as its target Voltage-gated inwardly rectifying potassium channel KCNH2 (Homo sapiens, UniProt Q12809). The data set is described as follows: Inhibition of human ERG.
In data set [13] the test system is Mus musculus. The data set is described as follows: In vivo inhibition of DPP-4 in ICR mouse assessed as cleavage rate of Gly-Pro-AMC in plasma at 1 mg/kg, po measured at 4.5 hrs by fluorescence assay relative to control. The format is functional.
Data set [14] can be described thus: AUC (0 to t) in Sprague-Dawley rat at 25 mg/kg, po. The format is ADME, organism-based. Particulars: plasma. More on the design: dose 25 mg/kg, route oral.
Data set [15] relates to Mus musculus. The data set is described as follows: In vivo inhibition of DPP-4 in ICR mouse assessed as cleavage rate of Gly-Pro-AMC in plasma at 3 mg/kg, po measured at 4.5 hrs by fluorescence assay relative to control. It counts as functional.
Data set [16] in a line: Half life in Sprague-Dawley rat at 5 mg/kg, iv. It counts as ADME, organism-based. More on the design: dose 5 mg/kg, route intravenous. The settings on record: in vivo.
The test system of data set [17] is Mus musculus. The data set is described as follows: In vivo inhibition of DPP-4 in ICR mouse assessed as cleavage rate of Gly-Pro-AMC in plasma at 1 mg/kg, po measured at 7 hrs by fluorescence assay relative to control. It counts as functional.
In data set [18] the test system is Mus musculus. In words: In vivo inhibition of DPP-4 in ICR mouse assessed as cleavage rate of Gly-Pro-AMC in plasma at 1 mg/kg, po measured at 24 hrs by fluorescence assay relative to control. It counts as functional.

Some results are limits rather than exact numbers.

Chain of Dipeptidyl peptidase 9 (Q86TI2 whole entry): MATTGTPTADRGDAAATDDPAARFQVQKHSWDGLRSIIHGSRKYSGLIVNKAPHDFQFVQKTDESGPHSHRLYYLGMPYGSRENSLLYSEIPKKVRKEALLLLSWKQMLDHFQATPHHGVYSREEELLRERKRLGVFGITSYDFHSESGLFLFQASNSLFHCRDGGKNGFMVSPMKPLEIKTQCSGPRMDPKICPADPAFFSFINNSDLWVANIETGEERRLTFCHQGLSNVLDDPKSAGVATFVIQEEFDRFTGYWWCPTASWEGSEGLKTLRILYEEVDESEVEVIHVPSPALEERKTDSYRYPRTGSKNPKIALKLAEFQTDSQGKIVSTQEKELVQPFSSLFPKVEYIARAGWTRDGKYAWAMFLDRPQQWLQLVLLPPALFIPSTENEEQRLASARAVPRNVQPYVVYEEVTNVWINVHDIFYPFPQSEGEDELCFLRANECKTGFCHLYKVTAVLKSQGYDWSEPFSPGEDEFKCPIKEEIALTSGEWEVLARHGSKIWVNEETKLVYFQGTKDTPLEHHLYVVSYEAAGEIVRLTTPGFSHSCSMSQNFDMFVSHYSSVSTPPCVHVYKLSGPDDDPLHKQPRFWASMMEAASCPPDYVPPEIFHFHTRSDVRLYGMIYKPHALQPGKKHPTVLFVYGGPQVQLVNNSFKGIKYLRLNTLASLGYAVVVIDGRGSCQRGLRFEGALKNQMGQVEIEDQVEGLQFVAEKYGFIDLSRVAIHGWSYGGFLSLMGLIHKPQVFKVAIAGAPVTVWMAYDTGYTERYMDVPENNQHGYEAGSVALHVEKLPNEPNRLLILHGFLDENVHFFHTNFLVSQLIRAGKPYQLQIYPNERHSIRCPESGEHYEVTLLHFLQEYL
Chain of Dipeptidyl peptidase 8 (Q6V1X1 whole entry): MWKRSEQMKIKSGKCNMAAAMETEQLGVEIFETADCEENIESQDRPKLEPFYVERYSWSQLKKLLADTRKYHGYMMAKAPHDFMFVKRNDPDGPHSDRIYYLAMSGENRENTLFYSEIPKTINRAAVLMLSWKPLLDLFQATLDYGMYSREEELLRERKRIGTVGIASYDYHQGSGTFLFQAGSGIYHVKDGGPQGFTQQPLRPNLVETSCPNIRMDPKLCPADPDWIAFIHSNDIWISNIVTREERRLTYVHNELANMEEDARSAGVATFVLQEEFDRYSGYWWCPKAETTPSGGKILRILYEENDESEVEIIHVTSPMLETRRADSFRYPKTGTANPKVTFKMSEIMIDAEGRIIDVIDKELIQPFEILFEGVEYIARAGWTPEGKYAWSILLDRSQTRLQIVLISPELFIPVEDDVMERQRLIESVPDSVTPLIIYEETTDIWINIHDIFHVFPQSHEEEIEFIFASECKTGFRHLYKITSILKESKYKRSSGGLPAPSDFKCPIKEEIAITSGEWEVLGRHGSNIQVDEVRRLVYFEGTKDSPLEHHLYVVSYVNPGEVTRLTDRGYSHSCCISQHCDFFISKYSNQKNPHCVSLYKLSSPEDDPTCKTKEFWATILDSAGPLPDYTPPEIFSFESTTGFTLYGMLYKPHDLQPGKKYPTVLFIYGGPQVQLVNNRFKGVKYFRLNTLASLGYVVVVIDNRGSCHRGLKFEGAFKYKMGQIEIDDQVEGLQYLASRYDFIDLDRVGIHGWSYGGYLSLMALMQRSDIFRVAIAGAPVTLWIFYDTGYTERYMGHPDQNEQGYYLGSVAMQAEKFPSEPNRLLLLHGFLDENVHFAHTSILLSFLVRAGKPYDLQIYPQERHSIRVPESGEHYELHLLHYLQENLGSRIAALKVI
Chain of Cytochrome P450 3A4 (P08684 whole entry): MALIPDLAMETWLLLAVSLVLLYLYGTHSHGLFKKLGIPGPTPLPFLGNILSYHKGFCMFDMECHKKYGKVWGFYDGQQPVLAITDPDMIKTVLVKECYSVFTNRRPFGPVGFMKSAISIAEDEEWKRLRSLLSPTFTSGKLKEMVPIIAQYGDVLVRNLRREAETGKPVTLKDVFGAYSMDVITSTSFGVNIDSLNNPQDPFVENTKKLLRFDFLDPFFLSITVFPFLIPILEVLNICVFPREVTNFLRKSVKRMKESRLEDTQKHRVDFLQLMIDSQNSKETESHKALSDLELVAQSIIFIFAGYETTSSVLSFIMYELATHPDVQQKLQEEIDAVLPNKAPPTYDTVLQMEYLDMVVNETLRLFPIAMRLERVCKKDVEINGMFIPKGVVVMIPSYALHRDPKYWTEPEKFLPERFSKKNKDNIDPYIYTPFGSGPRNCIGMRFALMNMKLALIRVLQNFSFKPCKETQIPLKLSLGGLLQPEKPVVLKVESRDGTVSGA
Chain of Voltage-gated inwardly rectifying potassium channel KCNH2 (Q12809 whole entry): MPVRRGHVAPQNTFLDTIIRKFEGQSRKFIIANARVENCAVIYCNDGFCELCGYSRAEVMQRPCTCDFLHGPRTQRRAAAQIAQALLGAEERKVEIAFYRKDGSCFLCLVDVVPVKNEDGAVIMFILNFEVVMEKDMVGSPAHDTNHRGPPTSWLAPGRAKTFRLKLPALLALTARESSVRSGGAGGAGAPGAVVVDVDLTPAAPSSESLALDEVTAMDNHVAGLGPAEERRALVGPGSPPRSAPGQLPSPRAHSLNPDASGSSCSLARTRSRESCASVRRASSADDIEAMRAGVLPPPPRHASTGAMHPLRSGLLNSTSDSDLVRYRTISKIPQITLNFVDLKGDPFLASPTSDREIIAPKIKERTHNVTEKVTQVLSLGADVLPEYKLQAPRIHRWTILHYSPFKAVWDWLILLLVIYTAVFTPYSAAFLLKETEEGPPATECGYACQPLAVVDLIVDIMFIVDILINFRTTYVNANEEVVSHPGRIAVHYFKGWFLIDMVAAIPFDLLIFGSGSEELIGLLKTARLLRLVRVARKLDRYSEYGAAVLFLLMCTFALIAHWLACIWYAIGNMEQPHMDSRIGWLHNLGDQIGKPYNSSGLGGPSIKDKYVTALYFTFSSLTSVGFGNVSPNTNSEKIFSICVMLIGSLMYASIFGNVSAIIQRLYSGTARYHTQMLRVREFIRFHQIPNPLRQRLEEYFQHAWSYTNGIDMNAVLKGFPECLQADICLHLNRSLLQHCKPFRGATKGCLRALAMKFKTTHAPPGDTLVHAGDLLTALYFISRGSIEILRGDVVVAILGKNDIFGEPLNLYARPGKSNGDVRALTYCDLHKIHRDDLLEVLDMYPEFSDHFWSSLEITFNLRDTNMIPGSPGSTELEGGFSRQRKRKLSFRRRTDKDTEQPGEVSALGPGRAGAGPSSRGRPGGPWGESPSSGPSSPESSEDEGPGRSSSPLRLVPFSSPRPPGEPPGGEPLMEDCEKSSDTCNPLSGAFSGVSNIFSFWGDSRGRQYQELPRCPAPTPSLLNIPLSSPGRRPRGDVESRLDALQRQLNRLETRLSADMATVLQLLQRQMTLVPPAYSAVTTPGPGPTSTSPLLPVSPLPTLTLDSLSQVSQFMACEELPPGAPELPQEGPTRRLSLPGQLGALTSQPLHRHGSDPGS

With `CC#CCn1c(N2CCC[C@@H](N)C2)cc(=O)n(CC#CC)c1=O`, the IC50 in data set [1] and in data set [2] was over 100 µM throughout.
Regarding `CC#CCn1c(N2CCC[C@@H](N)C2)cc(=O)n(Cc2ccccc2)c1=O`, the IC50 in data set [1] and in [2] was over 100 µM in each case.
As to `CC#CCn1c(N2CCC[C@@H](N)C2)cc(=O)n(Cc2ncccn2)c1=O`, the IC50 in data set [1] and in [2] was over 100 µM each time.
Turning to `CC#CCn1c(N2CCC[C@@H](N)C2)cc(=O)n(Cc2nc3ccccc3[nH]2)c1=O`, the IC50 in data set [1] and in data set [2] was over 100 µM in each case.
For the compound `CC#CCn1c(N2CCC[C@@H](N)C2)cc(=O)n(Cc2ccc3ccccc3n2)c1=O`, the IC50 was over 100 µM in [1], over 100 µM in data set [2] and 97.9 µM in [5]. The half-life in data set [3] is 4.2 h. In [4], this compound yielded a bioavailability of 63%.
Turning to `CC#CCn1c(N2CCC[C@@H](N)C2)cc(=O)n(Cc2ccc3c(ccc4ccccc43)n2)c1=O`, the half-inhibitory concentration (IC50) in [1] and in data set [2] was over 100 µM throughout.
As for `CC#CCn1c(N2CCC[C@@H](N)C2)cc(=O)n(Cc2ccc3cc(Br)ccc3n2)c1=O`, the IC50 in data set [1] is over 100 µM; in data set [2], over 100 µM; in [5], 79.4 µM.
`CC#CCn1c(N2CCC[C@@H](N)C2)cc(=O)n(Cc2ccc3cc(Cl)ccc3n2)c1=O`: the IC50 is over 100 µM in data set [1], over 100 µM in [2] and 91.9 µM in data set [5].
Take `CC#CCn1c(N2CCC[C@@H](N)C2)cc(=O)n(Cc2ccc3cc(F)ccc3n2)c1=O`: the values for the IC50 in [1], in data set [2] and in [5] were over 100 µM, over 100 µM and 58.3 µM, respectively.
Consider `CC#CCn1c(N2CCC[C@@H](N)C2)cc(=O)n(Cc2ccc3cc(C)ccc3n2)c1=O`, for which the IC50 in data set [1] is over 100 µM; in data set [2] it was over 100 µM; in data set [5], 46.2 µM.
`CC#CCn1c(N2CCC[C@@H](N)C2)cc(=O)n(Cc2ccc3cc(OC)ccc3n2)c1=O`: the values for the IC50 in data set [1], in [2] and in data set [5] were over 100 µM, over 100 µM and 42.2 µM, respectively.
`CC#CCn1c(N2CCC[C@@H](N)C2)cc(=O)n(Cc2ccc3ccc(Cl)cc3n2)c1=O`: the inhibition in vivo at 3 mg/kg was found to be 82.3% in [6], 13.5% in data set [9], 80.4% in [10] and 84.7% in data set [15]. Also, the IC50 in data set [1] was over 100 µM; in [12] it was over 100 µM; in [2], over 100 µM; in data set [5], 46.2 µM. In [7], the Vd/F came to 8.65 L/kg. The inhibition in vivo at 1 mg/kg in data set [8] worked out at 51.8%; in [13], 76%; in data set [17], 71.6%; in data set [18], 11.5%. Also, the figures for the half-life in data set [3] and in [16] were 5.02 h and 5.65 h, respectively. In addition, the bioavailability in data set [4] came out at 73%. Besides, the clearance in data set [11] was 17.5 mL/min/kg. Moreover, the AUC(0-t) in data set [14] is 17600 ng·h/mL.
Regarding `CC#CCn1c(N2CCC[C@@H](N)C2)cc(=O)n(Cc2ccc3ccc(F)cc3n2)c1=O`, the IC50 in [1] was over 100 µM; in data set [2], over 100 µM; in [5] it was 54.7 µM.
For `CC#CCn1c(N2CCC[C@@H](N)C2)cc(=O)n(Cc2cc(Cl)c3ccccc3n2)c1=O`, the IC50 in [1] was over 100 µM; in data set [5], 14.1 µM.
With `Cn1c(=O)cc(N2CCC[C@@H](N)C2)n(Cc2ccccc2C#N)c1=O` [ALOGLIPTIN], the inhibition in vivo at 3 mg/kg in data set [6] came to 50.9%; in data set [9] it was 0.8%; in data set [10], 83.8%; in data set [15], 71.5%. Moreover, the inhibition in vivo at 1 mg/kg in data set [8] came out at 72.6%; in data set [13] it was 49.4%; in data set [17] it was 27.6%; in data set [18], 0.5%. The compound further showed a half-life in data set [3] of 2 h.

The values are drawn from ChEMBL document CHEMBL2424575 (Eur J Med Chem, 2013).
